Earlier results, collected in patent publication US20180117080A1, “COMPOSITIONS AND METHODS FOR TREATING SKIN CONDITIONS” (priority 2015, published 2018).

[Cl-].[K+] [KCl, Potassium Chloride]
g/L Water Solubility 20c: 344 g/L
